For series [1], the system named is NO production in LPS-induced RAW 264.7 macrophages. The series is described as follows: Inhibition of LPS induced NO production in RAW264.7 macrophages (Griess reagent). The class given is cell-based, mouse. Here is the method:
All compounds were assayed by measuring the inhibitory effects on NO production induced by LPS in mouse macrophage RAW 264.7 cells. The RAW 264.7 cells were seeded in each well of a 96-well plate at a concentration of 5 × 10^5 cells/ml in DMEM medium containing 10% fetal bovine serum, 2 mmol/l glutamine, 100 U/ml penicillin, and 100 μg/ml streptomycin. After incubation at 37°C in a humidified atmosphere of 5% CO2 air for 12 h, cells were treated with LPS (1 μg/ml) and compounds ([…], and compound was dissolved in DMSO to dilute until the final DMSO concentration <0.1%, v/v), then incubation for 24 h at 37°C. NO production was determined by measuring the quantity of nitrite in the culture medium by the Griess reagent. Aminoguanidine was selected as a positive control. A 50 μl of the supernatant of culture medium was mixed with 100 μl of the Griess reagent. Using nitrite to generate a standard curve, nitrite production was measured by a microplate reader at 540 nm. Cell viability was examined by the MTT method (Wu et al., [2016]). The compounds with inhibitory rate more than 50% at a dose of 50 μg/ml were further detected in the gradient concentrations to calculate IC50 values. […]
(§1) 7. Assay for inhibition toward nitric oxide production in RAW264.7 macrophages The experiment was conducted according to a literature procedure.1 Murine monocytic RAW264.7 cells grown in 96-well cell culture plates (2 × 10^5 cells/well) and pretreated with serial concentrations of the compounds 1‒8 for 30 min, followed by stimulation with LPS (1 μg/mL) under a humidified atmosphere with 5% CO2 at 37°C. After 24 h, the NO production of the supernatant was determined by adding the 100 μL of Griess reagent. Subsequently, the MTT
(§2) [3-(4,5-dimethylthiazol-2-yl)-2,5-diphenyltetrazolium bromide] reduction2 was used to evaluate the cell viability, and results were expressed as the mean value of triplicate determinations. The positive control was aminoguanidine.2 […]
In general terms: Nitrite, measured by Griess reagent, commonly stands in for NO production.

Series [2] is described as follows: Cytotoxic activity toward tumor cell line A549. The conditions noted are these: human, A549 tumor cells. The class given is cell-based.
The nature of series [3]: Cytotoxic activity toward tumor cell line U937. The conditions noted are these: human, U937 tumor cells. The class given is cell-based.
Series [4] in a line: Cytotoxic activity toward tumor cell line SMMC7721. The class given is cell-based. The conditions noted are these: human, SMMC7721 tumor cells.
The nature of series [5]: Cell viability of RAW264.7 macrophages (MTT method). The class given is cell-based, mouse. The conditions noted are these: mouse. The method, then: as §1, §2
A general note: Tetrazolium assays rely on reduction of a dye to a coloured formazan, in cell work by metabolically active cells.

Series [6] has as its system HBV virus in HepG2.2.15 cells. The series can be described thus: In vitro anti-HBV effects (HBV DNA, real time PCR). The class given is cell-based. The conditions noted are these: 10 μM. Here is the method:
HepAD38 cells were cultured with DMEM in 48-well plate at 1 × 10^5 cells/well for 24 h, then treated with 10 μM of each compound for 72 h. After 4 days, the cells were washed with precooled PBS for 2 times. HBV progeny DNA of HepAD38 cells were extracted using QIAamp DNA Blood Mini kit (Biomiga) according to the manufacturer's instruction. Total DNA was reversely transcribed using PrimeScript RT reagent Kit (Takara, Dalian, China). PCR amplification was performed on an StepOne Plus real time PCR system (Applied Biosystems, Foster City, CA) using the SYBR Green Master Mix (Applied Biosystems, Foster City, CA). All experiments were performed in triplicate, and the relative levels of assayed HBV DNA were calculated with the delta–delta CT method using lamivudine as a positive control, and normalized to non-treated control. […]
8. Assay for in vitro anti-HBV effects
HepG2. 2. 15 cells were cultured with DMEM in 48-well plate at 1×10^5 cells/well for 24 h, then treated with 10 µM of compounds for 72 h. At d 4, these cells were washed 2 times with precooled PBS, and treated with 10 µM of compounds for 72 h.
HBV progeny DNA of HepG2. 2. 15 cells were extracted using QIAamp DNA Blood Mini kit (Biomiga) according to the manufacturer's instruction. Then total DNA was reverse transcribed using PrimeScript RT reagent Kit (Takara, Dalian, China). The primers were designed and synthesized by Takara, and the sequences of the primers […]
PCR amplification was performed on an StepOne Plus real time PCR system (Applied Biosystems, Foster City, CA) using the SYBR Green Master Mix (Applied Biosystems, Foster City, CA). All experiments were performed in triplicate, and the relative levels of assayed HBV DNA were calculated with the […]
delta‒delta CT method using lamivudine expressions as positive control, and normalized to non-treated control. […]
(Takara, Dalian, China). The primers were designed and synthesized by Takara, the […]
performed on an StepOne Plus real time PCR system (Applied Biosystems, Foster City, CA) using the SYBR Green Master Mix (Applied Biosystems, Foster City, CA). […]

In a further series the test system is HaCaT cells. The series is described as follows: Protection against UVB-induced cell damage in HaCaT cells (MTT assay). The class given is cell-based. The conditions noted are these: HaCaT cells, UVB 30 mJ/cm^2, 20 μM, 24 h; UVB alone 70% of normal group. The method, then:
HaCaT cells were seeded at 5 × 10^5 cells per well in 6-well plates and incubated under starvation conditions for 24 h using serum-free MEM. HaCaT cells were exposed to UVB irradiation (UVB lamp: SUV-1000, Sigma-China) at a dose of 30 mJ/cm^2. After UVB irradiation, DMEM medium containing 1 (20 μM) or epigallocatechin gallate (20 μM) was added and the cells were incubated for 24 h, and then the MTT assay was performed.

Where [7] appears, read: Mus musculus, RAW264.7, 24 h, LPS 1 μg/ml, 24 h.
The mark [8] stands for this setting: RAW264.7 macrophages, RAW264.7, MTT, Table 3, read-out: CC50 (μM) Cytotoxicity.
The mark [9] stands for this setting: RAW264.7 macrophages, Table S9 of the supplement, read-out: CC50 (M), 50% cytotoxic concentration.
Where [10] appears, read: Mus musculus, RAW264.7, Table S9 of the supplement, read-out: IC50 (M), 50% inhibitory concentration.
Setting [11] is: Mus musculus, RAW264.7, read-out: IC50 (M), 50% inhibitory concentration.
Where [12] appears, read: RAW264.7, MTT, Table 3, read-out: CC50 (μM) Cytotoxicity.
[13] abbreviates: Table S9 of the supplement, read-out: CC50 (M), 50% cytotoxic concentration.

Where two headings read alike, the source gives them in different places.

The source of these data is paper PMC6072878, “Brasilianoids A–F, New Meroterpenoids From the Sponge-Associated Fungus Penicillium brasilianum” (Frontiers in Chemistry, 2018).

As for `N=C(N)NN` [Aminoguanidine, reference compound], in series [1] (LPS 1 μg/ml, 24 h, Table 3, read-out: IC50 (μM) NO), the IC50 came to 7.62 ± 0.08 µM.

The inhibition is the percentage by which the read-out fell short of the control. Take `C=C1C2(C)CC3C4(C)C=CC(=O)OC(C)(C)C4CCC3(C)C13C(=O)OC(C)C3(O)C2=O` [Compound 2, (5aS, 5bS, 7R, 8aR, 9S, 11aR, 11bS, 13aS)-8a-hydroxy-1,1,5a, 7,9, 11b-hexamethyl-14-methylene-5a, 5b, 6,7,8a, 9, 11b, 12, 13, 13a-decahydro-1H, 11H-7,11a-methanofuro[3″,4″:3′,4′]cyclohepta[1′,2′:3,4]benzo[1,2-c]oxepine-3,8,11-trione]: the IC50 in series [2] was > 10 µM; in series [3], > 10 µM; in series [4] it was > 10 µM; in series [1] (Mus musculus, RAW264.7, 24 h, LPS 1 μg/ml, 24 h, Table 3, read-out: IC50 (μM) NO), 37.7 ± 5.25 µM. Also, in series [1] (LPS-induced RAW 264.7 macrophages), the “inhibition toward NO production (in words)” value is listed as “moderate inhibition”. Further, testing at 50 µg/mL in series [1] (setting [7]) gave an inhibition of 58%. The CC50 at 24 h in series [5] (setting [8]) was > 100 µM; in series [5] (setting [9]), > 50 µM.

On to `Nc1ccn([C@@H]2CS[C@H](CO)O2)c(=O)n1` [lamivudine, reference compound], for which, in series [6], the “inhibitory rate of DNA expression of the HBV virus” value (shortened to “inhibitory rate”) amounted to 75%.

Regarding `O=C(O[C@@H]1Cc2c(O)cc(O)cc2O[C@@H]1c1cc(O)c(O)c(O)c1)c1cc(O)c(O)c(O)c1` [epigallocatechin gallate, reference compound], in the series with HaCaT cells, the “cell viability after UVB irradiation” value is reported as 75%.

`C=C1[C@@]2(C)C[C@H]3[C@](C)(CCC(=O)OC)[C@@H](C(C)(C)O)CC[C@]3(C)[C@]1(C(=O)OC)C(=O)[C@@](C)(O)C2=O` [Compound 7, preaustinoid D]: the IC50 is > 10 µM in series [2], > 10 µM in series [3], > 10 µM in series [4] and > 50 µM in series [1] (setting [10]). In addition, the inhibition at 50 µg/mL in series [1] (setting [7]) was found to be 28%. The figures for the CC50 at 24 h in series [5] (setting [8]) and in series [5] (setting [9]) were > 100 µM and > 50 µM, respectively.

Turning to `C=C1C2(C)CC3C4(C)C(O)C5CC(C)(OC5=O)C4CCC3(C)C13C(=O)OC(C)C3(O)C2=O` [Compound 6, (1R, 4S, 5R, 5aS, 5bR, 7R, 8aR, 9R, 11aR, 11bS, 13aS)-5,8a-dihydroxy-1,5a,7,9,11b-pentamethyl-14-methylenedodecahydro-1H,11H-1,4:7,11a-dimethanofuro[3″,4″:3′,4′]cyclohepta[1′,2′:3,4]benzo[1,2-c]oxepine-3,8,11-trione], the IC50 in series [2] is > 10 µM; in series [3], > 10 µM; in series [4] it was > 10 µM; in series [1] (setting [11]) it was > 50 µM. Besides, the CC50 at 24 h in series [5] (setting [12]) was > 100 µM; in series [5] (setting [13]) it was > 50 µM.

Take `C=C1[C@@]2(C)C[C@H]3[C@]4(C)C=CC(=O)OC(C)(C)[C@H]4CC[C@]3(C)[C@]1(C(=O)OC)C(=O)[C@@](C)(O)C2=O` [Compound 8, preaustinoid A2]: the IC50 in series [2] is > 10 µM; in series [3], > 10 µM; in series [4] it was > 10 µM; in series [1] (setting [11]), > 50 µM. The results for the CC50 at 24 h in series [5] (setting [12]) and in series [5] (setting [13]) were > 100 µM and > 50 µM, respectively.

As to `C=C1[C@@]2(C)C[C@H]3[C@](C)(CCC(=O)OC)[C@@H](C(C)(C)O)CC[C@]3(C)[C@@]13C(=O)O[C@H](C)[C@@]3(O)C2=O` [Compound 4, methyl 3-((3R, 3aR, 5R, 6aS, 7S, 8S, 10aS, 10bR)-3a-hydroxy-8-(2-hydroxypropan-2-yl)-3,5,7,10a-tetramethyl-11-methylene-1,4-dioxodecahydro-1H,3H-5,10b-methanobenzo[3,4]cyclohepta[1,2-c]furan-7-yl)propanoate], the IC50 is > 10 µM in series [2], > 10 µM in series [3], > 10 µM in series [4] and > 50 µM in series [1] (setting [10]). Also, in series [1] (setting [7]), the inhibition at 50 µg/mL amounted to 32%. For the same molecule, the CC50 at 24 h in series [5] (setting [8]) is > 100 µM; in series [5] (setting [9]), > 50 µM. For the same molecule, the “inhibitory rate” value in series [6] came to 15%.

Consider `C=C1[C@@]2(C)C[C@H]3[C@](C)(CCC(=O)OC)[C@@H](C(C)(C)O)CC[C@]3(C)[C@@]13C(=O)O[C@@H](C)[C@@]3(O)C2=O` [Compound 5, methyl 3-((3S, 3aR, 5R, 6aS, 7S, 8S, 10aS, 10bR)-3a-hydroxy-8-(2-hydroxypropan-2-yl)-3,5,7,10a-tetramethyl-11-methylene-1,4-dioxodecahydro-1H,3H-5,10b-methanobenzo[3,4]cyclohepta[1,2-c]furan-7-yl)propanoate], for which the IC50 is > 10 µM in series [2], > 10 µM in series [3], > 10 µM in series [4] and > 50 µM in series [1] (setting [10]). Further, the inhibition at 50 µg/mL in series [1] (setting [7]) is 36%. The values for the CC50 at 24 h in series [5] (setting [8]) and in series [5] (setting [9]) were > 100 µM and > 50 µM, respectively. Besides, in series [6], the “inhibitory rate” value came out at 10%.
